This note sets out measurements from patent US20260144769A1, “4-PHENYLBUTYRATE RESTORED GABA UPTAKE AND REDUCED SEIZURES IN SLC6A1 VARIANT-MEDIATED DISORDERS” (Vanderbilt University, priority 2022, published 2026).

For this experiment, the system named is GAT-1. Description: 3H GABA uptake, cultured cortical neurons from the knockin mice. Format: cell-based, mouse. To be noted: PBA 2 mM, 24 hr. On the procedure:
FIGS. 7C-D show neurons directly cultured in the 35-mm^2 dishes and GABA uptake was evaluated between day 15-17 days after culture. CI-966 (50 μM) and NNC711 (35 μM) was applied 30 min before preincubation and removed during preincubation. GAT-3 inhibitor SNAP5114 (30 μM) was applied during GABA uptake to make sure only GAT-1 activity was measured. The wildtype astrocytes (FIGS. 7A-B) or cortical neurons (FIGS. 7C-D) of either SLC6A1^+/A288V or SLC6A1^+/S295L were taken as 1. The cultures derived from each mutant mouse was compared to the culture from its own wildtype littermates. […] The wildtype data were pooled from two mouse lines. […] The graph represents the relative GABA uptake level normalized to cells of its own genotype treated with DMSO. CI-966 (50 μM) or NNC-711 (35 μM) was applied 30 min before preincubation and removed during preincubation. Two-way analysis of variance followed by Bonferroni multiple comparison test was used. Values were expressed as mean±S.E.M. In FIG. 7A and FIG. 7C, ***p<0.001 vs. wt; § § § P<0.001 S295L vs. A288V. […]
Briefly, cells were cultured in […] dishes for 3 days before the GABA uptake experiment in DMEM with 10% fetal bovine serum and 1% penicillin/streptomycin. […] Glacial acetic acid was added, and lysates were then determined on a liquid scintillator with QuantaSmart. […]

SMILES strings stand for the structures.

Regarding `O=C(O)CCCc1ccccc1` [PBA, 4-phenylbutyric acid], the “GABA uptake in PBA treated cells” value is reported as “upregulation”.
